Measured values taken from patent publication US20240262826A1, “WILD TYPE KIT INHIBITORS” (Blueprint Medicines Corporation, priority 2022, published 2024).
pIC50: −log10 of the molar value.

Target: wild type c-kit (Homo sapiens (Human), UniProt P10721)
Experiment: PathScan phospho c-kit (Tyr719) sandwich ELISA in SCF-stimulated M-07e cells (pKIT assay)
Format: cell-based
Conditions: ELISA assay (values not marked *)
Summary of the method: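 Serum- and GM-CSF-starved M-07e cells (4 h) pretreated 60 min at 37 °C with an 8-point compound series in duplicate (0.25% DMSO), then stimulated with human SCF (500 ng/mL stock) 10 min at room temperature. Lysate c-kit Tyr719 phosphorylation quantified by sandwich ELISA with TMB read-out; IC50 from 4-parameter logistic fit.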

wild type c-kit, sequence (P10721 26-976): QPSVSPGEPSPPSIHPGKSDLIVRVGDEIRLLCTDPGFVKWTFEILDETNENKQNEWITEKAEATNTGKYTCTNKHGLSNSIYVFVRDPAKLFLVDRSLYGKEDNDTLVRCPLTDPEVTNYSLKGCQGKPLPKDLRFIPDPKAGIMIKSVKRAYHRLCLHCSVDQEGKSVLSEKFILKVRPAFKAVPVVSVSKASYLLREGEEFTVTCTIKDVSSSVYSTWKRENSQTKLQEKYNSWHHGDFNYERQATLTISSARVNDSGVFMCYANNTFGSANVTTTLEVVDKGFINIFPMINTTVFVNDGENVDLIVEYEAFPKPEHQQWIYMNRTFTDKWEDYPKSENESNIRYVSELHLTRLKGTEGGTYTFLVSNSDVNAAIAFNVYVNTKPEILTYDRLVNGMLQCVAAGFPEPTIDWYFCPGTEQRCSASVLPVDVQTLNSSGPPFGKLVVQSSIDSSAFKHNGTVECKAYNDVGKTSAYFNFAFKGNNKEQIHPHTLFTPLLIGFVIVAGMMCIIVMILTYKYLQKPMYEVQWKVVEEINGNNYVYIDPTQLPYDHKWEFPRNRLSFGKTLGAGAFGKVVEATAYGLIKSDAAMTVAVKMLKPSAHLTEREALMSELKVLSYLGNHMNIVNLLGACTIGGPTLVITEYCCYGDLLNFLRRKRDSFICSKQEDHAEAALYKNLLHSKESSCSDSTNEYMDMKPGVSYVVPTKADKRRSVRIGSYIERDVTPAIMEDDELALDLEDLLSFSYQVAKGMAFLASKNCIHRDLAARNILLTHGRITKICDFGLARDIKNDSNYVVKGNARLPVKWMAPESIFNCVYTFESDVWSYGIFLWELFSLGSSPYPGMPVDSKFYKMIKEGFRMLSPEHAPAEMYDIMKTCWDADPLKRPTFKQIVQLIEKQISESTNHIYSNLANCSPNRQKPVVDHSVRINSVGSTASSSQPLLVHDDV

| Structure (SMILES) | pIC50 |
| --- | --- |
| Cc1ccc(-c2nnn(C3CC3)n2)cc1NC(=O)c1cnn2ccc(-c3cnn([C@@H](C)[C@H](C)O)c3C)cc12 (single isomer, unassigned) [Example 270, N-(5-(2-cyclopropyl-2H-tetrazol-5-yl)-2-methylphenyl)-5-(1-((2S,3S)-3-hydroxybutan-2-yl)-5-methyl-1H-pyrazol-4-yl)pyrazolo[1,5-a]pyridine-3-carboxamide or N-(5-(2-cyclopropyl-2H-tetrazol-5-yl)-2-methylphenyl)-5-(1-((2R,3R)-3-hydroxybutan-2-yl)-5-methyl-1H-pyrazol-4-yl)pyrazolo[1,5-a]pyridine-3-carboxamide] | 9.30 |
| Cc1c(-c2ccn3ncc(C(=O)Nc4cc(-c5nnn(C6CC6)n5)c(F)cc4Cl)c3c2)cnn1C[C@H](C)O [Example 264, (S)-N-(2-chloro-5-(2-cyclopropyl-2H-tetrazol-5-yl)-4-fluorophenyl)-5-(1-(2-hydroxypropyl)-5-methyl-1H-pyrazol-4-yl)pyrazolo[1,5-a]pyridine-3-carboxamide] | 9.30 |
| COC(=O)N1CC(n2nnc(-c3ccc(C)c(NC(=O)c4cnn5ccc(N[C@@H]6CCOC6)cc45)c3)n2)C1 [Example 129, methyl (R)-3-(5-(4-methyl-3-(5-((tetrahydrofuran-3-yl)amino)pyrazolo[1,5-a]pyridine-3-carboxamido)phenyl)-2H-tetrazol-2-yl)azetidine-1-carboxylate] | 7.53 |
| CCn1nnc(-c2ccc(C)c(NC(=O)c3cnn4ccccc34)c2)n1 [Example 14, N-(5-(2-ethyl-2H-tetrazol-5-yl)-2-methylphenyl)pyrazolo[1,5-a]pyridine-3-carboxamide] | 7.54 |
| Cc1ccc(-n2nnc(C3CC3F)n2)cc1NC(=O)c1cnn2ccc(-c3cnn(CC(C)(C)O)c3)cc12 (stereo not drawn) [Example 222, N-(5-(5-(2-fluorocyclopropyl)-2H-tetrazol-2-yl)-2-methylphenyl)-5-(1-(2-hydroxy-2-methylpropyl)-1H-pyrazol-4-yl)pyrazolo[1,5-a]pyridine-3-carboxamide] | 8.57 |
| Cc1ccc(-c2nnn(C3CC(F)(F)C3)n2)cc1NC(=O)c1cnn2ccc(N3CC[C@@](C)(O)C3)cc12 (single isomer, unassigned) [Example 86, (S)—N-(5-(2-(3,3-difluorocyclobutyl)-2H-tetrazol-5-yl)-2-methylphenyl)-5-(3-hydroxy-3-methylpyrrolidin-1-yl)pyrazolo[1,5-a]pyridine-3-carboxamide or (R)—N-(5-(2-(3,3-difluorocyclobutyl)-2H-tetrazol-5-yl)-2-methylphenyl)-5-(3-hydroxy-3-methylpyrrolidin-1-yl)pyrazolo[1,5-a]pyridine-3-carboxamide] | 8.07 |
| Cc1cc(C)c(-c2nnn(CC3CC3(F)F)n2)cc1NC(=O)c1cnn2ccccc12 (stereo not drawn) [Example 21, N-(5-(2-((2,2-difluorocyclopropyl)methyl)-2H-tetrazol-5-yl)-2,4-dimethylphenyl)pyrazolo[1,5-a]pyridine-3-carboxamide] | 8.19 |
| COCCNc1ccn2ncc(C(=O)Nc3cc(-c4nnn([C@H]5C[C@H](CO)C5)n4)ccc3C)c2c1 [Example 201, N-(5-(2-((1r,3r)-3-(hydroxymethyl)cyclobutyl)-2H-tetrazol-5-yl)-2-methylphenyl)-5-((2-methoxyethyl)amino)pyrazolo[1,5-a]pyridine-3-carboxamide] | 7.81 |
| O=C(Nc1cc(-c2nnn(C3CC3)n2)ccc1Cl)c1cnn2ccc(-c3cnn(CC4(O)CCOCC4)c3)cc12 [Example 236, N-(2-chloro-5-(2-cyclopropyl-2H-tetrazol-5-yl)phenyl)-5-(1-((4-hydroxytetrahydro-2H-pyran-4-yl)methyl)-1H-pyrazol-4-yl)pyrazolo[1,5-a]pyridine-3-carboxamide] | 9.22 |
| Cc1ccc(-c2nnn(C3CN(S(=O)(=O)C4CC4)C3)n2)cc1NC(=O)c1cnn2ccccc12 [Example 179, N-(5-(2-(1-(cyclopropylsulfonyl)azetidin-3-yl)-2H-tetrazol-5-yl)-2-methylphenyl)pyrazolo[1,5-a]pyridine-3-carboxamide] | 8.31 |
| COC(=O)N1CC(c2cnn(-c3ccc(C)c(NC(=O)c4cnn5cc(N6CCOCC6)ccc45)c3)n2)C1 [Example 160, methyl 3-(2-(4-methyl-3-(6-morpholinopyrazolo[1,5-a]pyridine-3-carboxamido)phenyl)-2H-1,2,3-triazol-4-yl)azetidine-1-carboxylate] | 7.83 |
| COC[C@H](O)Cn1cc(-c2ccn3ncc(C(=O)Nc4cc(-c5nnn(C6CC6)n5)c(F)cc4Cl)c3c2)c(C)n1 [Example 279, (R)—N-(2-chloro-5-(2-cyclopropyl-2H-tetrazol-5-yl)-4-fluorophenyl)-5-(1-(2-hydroxy-3-methoxypropyl)-3-methyl-1H-pyrazol-4-yl)pyrazolo[1,5-a]pyridine-3-carboxamide] | 9.22 |
| CCn1nnc(-c2cc(NC(=O)c3cnn4ccc(-c5c(C)nn(CC(C)(C)O)c5C)cc34)c(C)cc2F)n1 [Example 246, N-(5-(2-ethyl-2H-tetrazol-5-yl)-4-fluoro-2-methylphenyl)-5-(1-(2-hydroxy-2-methylpropyl)-3,5-dimethyl-1H-pyrazol-4-yl)pyrazolo[1,5-a]pyridine-3-carboxamide] | 9.15 |
| Cc1ccc(-c2nnn(C)n2)cc1NC(=O)c1cnn2ccc(-c3cnn(CC(C)(C)O)c3)cc12 [Example 48, 5-(1-(2-hydroxy-2-methylpropyl)-1H-pyrazol-4-yl)-N-(2-methyl-5-(2-methyl-2H-tetrazol-5-yl)phenyl)pyrazolo[1,5-a]pyridine-3-carboxamide] | 8.44 |
| COCCNc1ccn2ncc(C(=O)Nc3cc(-n4ncc(C5CN(C(=O)OC)C5)n4)ccc3Cl)c2c1 [Example 111, methyl 3-(2-(4-chloro-3-(5-((2-methoxyethyl)amino)pyrazolo[1,5-a]pyridine-3-carboxamido)phenyl)-2H-1,2,3-triazol-4-yl)azetidine-1-carboxylate] | 7.93 |
| Cc1ccc(-c2nnn(C3CN(S(=O)(=O)C4CCOC4)C3)n2)cc1NC(=O)c1cnn2ccccc12 (stereo not drawn) [Example 175, N-(2-methyl-5-(2-(1-((tetrahydrofuran-3-yl)sulfonyl)azetidin-3-yl)-2H-tetrazol-5-yl)phenyl)pyrazolo[1,5-a]pyridine-3-carboxamide] | 7.11 |
| Cc1cc(C)c(-c2nnn(C3CC(F)(F)C3)n2)cc1NC(=O)c1cnn2ccc(N3CCOCC3)cc12 [Example 156, N-(5-(2-(3,3-difluorocyclobutyl)-2H-tetrazol-5-yl)-2,4-dimethylphenyl)-5-morpholinopyrazolo[1,5-a]pyridine-3-carboxamide] | 7.66 |
| COC(=O)N1CC(n2nnc(-c3ccc(C)c(NC(=O)c4cnn5ccc(N(C)C)cc45)c3)n2)C1 [Example 132, methyl 3-(5-(3-(5-(dimethylamino)pyrazolo[1,5-a]pyridine-3-carboxamido)-4-methylphenyl)-2H-tetrazol-2-yl)azetidine-1-carboxylate] | 7.67 |
| Cc1ccc(-c2nnn(CCOC3CCC3)n2)cc1NC(=O)c1cnn2ccccc12 [Example 12, N-(5-(2-(2-cyclobutoxyethyl)-2H-tetrazol-5-yl)-2-methylphenyl)pyrazolo[1,5-a]pyridine-3-carboxamide] | 8.62 |
| Cc1cc(F)c(-c2nnn(C3CC3)n2)cc1NC(=O)c1cnn2cc(F)c(-c3cn(CC(C)(C)O)nc3C)cc12 [Example 247, N-(5-(2-cyclopropyl-2H-tetrazol-5-yl)-4-fluoro-2-methylphenyl)-6-fluoro-5-(1-(2-hydroxy-2-methylpropyl)-3-methyl-1H-pyrazol-4-yl)pyrazolo[1,5-a]pyridine-3-carboxamide] | 9.30 |
| CCNc1ccn2ncc(C(=O)Nc3cc(-n4ncc(C5CN(C(=O)OC)C5)n4)ccc3C)c2c1 [Example 137, methyl 3-(2-(3-(5-(ethylamino)pyrazolo[1,5-a]pyridine-3-carboxamido)-4-methylphenyl)-2H-1,2,3-triazol-4-yl)azetidine-1-carboxylate] | 7.77 |
| CCCS(=O)(=O)N1CC(n2nnc(-c3ccc(C)c(NC(=O)c4cnn5ccccc45)c3)n2)C1 [Example 174] | 7.55 |
| Cc1ccc(-c2nnn([C@H]3C[C@H](CO)C3)n2)cc1NC(=O)c1cnn2ccccc12 [Example 200, N-(5-(2-((1r,3r)-3-(hydroxymethyl)cyclobutyl)-2H-tetrazol-5-yl)-2-methylphenyl)pyrazolo[1,5-a]pyridine-3-carboxamide] | 7.77 |
| COC(=O)N1CC(n2nnc(-c3ccc(C)c(NC(=O)c4cnn5ccc(N6CCN(C7COC7)CC6)cc45)c3)n2)C1 [Example 74, methyl 3-(5-(4-methyl-3-(5-(4-(oxetan-3-yl)piperazin-1-yl)pyrazolo[1,5-a]pyridine-3-carboxamido)phenyl)-2H-tetrazol-2-yl)azetidine-1-carboxylate] | 7.19 |
| Cc1nn(C[C@@H](C)O)cc1-c1ccn2ncc(C(=O)Nc3cc(-c4nnn(C5CC5)n4)c(F)cc3Cl)c2c1 [Example 281, (R)—N-(2-chloro-5-(2-cyclopropyl-2H-tetrazol-5-yl)-4-fluorophenyl)-5-(1-(2-hydroxypropyl)-3-methyl-1H-pyrazol-4-yl)pyrazolo[1,5-a]pyridine-3-carboxamide] | 9.40 |
| Cc1ccc(-c2nnn(C)n2)cc1NC(=O)c1cnn2ccc(-c3cnn(CCCS(C)(=N)=O)c3)cc12 (stereo not drawn) [Example 232, N-(2-methyl-5-(2-methyl-2H-tetrazol-5-yl)phenyl)-5-(1-(3-(S-methylsulfonimidoyl)propyl)-1H-pyrazol-4-yl)pyrazolo[1,5-a]pyridine-3-carboxamide] | 7.59 |
| Cn1nnc(-c2ccc(F)c(NC(=O)c3cnn4ccc(-c5cnn(CC(C)(C)O)c5)cc34)c2)n1 [Example 213, N-(2-fluoro-5-(2-methyl-2H-tetrazol-5-yl)phenyl)-5-(1-(2-hydroxy-2-methylpropyl)-1H-pyrazol-4-yl)pyrazolo[1,5-a]pyridine-3-carboxamide] | 7.80 |
